Reference: patent publication US20250230149A1, “MGLUR5 MODULATING COMPOUNDS, COMPOSITIONS, AND METHODS OF USE” (Allyx Therapeutics, Inc., priority 2022, published 2025)
Values after ≈ are worked out from the molar mass of the structure shown. “Also recorded” adds a separate entry of the source. Where two headings read alike, the source gives them in different places.

Experiments:
C1q = C1q production, synaptic localization and synaptic engulfment; parameters: species or system mice; conditions: mouse, in vivo
Description: (§1) Compound 1 (e.g., Form A) prevented Alzheimer's triggered aberrant synaptic signaling while preserving physiological Glu activation. Studies have been conducted to show oral Compound 1 effectively occupied brain mGluR5 sites visualized by [^18F]FPEB PET at doses 250-fold below adverse effect levels in rodent and non-human primate. […] Production of the microglial mediator, C1q, was not altered by Compound 1, but Alzheimer-gene-dependent C1q localization to synapses and synaptic engulfment were prevented. Thus, selective modulation of mGluR5 reversed neuronal gene expression changes to protect synapses from damage by microglial mediators.

APP/PS1 mice = test: Immunohistochemical staining of SV2A and PSD-95 in APP/PS1 mouse model with washout; assay type: in vivo
Protocol: The objective of this study was to assess synaptic density of control and APP/PS1 mice before and after treatment with Compound 1, and to assess the reversibility of any observed effects following a drug washout period.
Vehicle (95% polyethylene glycol (PEG) 400/5% solutol) or Compound 1 at 7.5 mg/kg/day (3.75 mg/kg q12) was given to control and APP/PS1 mice for at least 28 days by oral administration. A subset of mice stopped treatment after four weeks, then underwent a four-week washout period.
Reduced synaptic density in APP/PS1 samples relative to controls was confirmed by immunohistochemical staining of pre- and post-synaptic markers (SV2A and PSD-95) in hippocampal and cortical sections.

neurons and glia = test: Single nuclei transcriptomics; assay type: in vivo, mice; conditions: neurons vs glia
Description: as §1

C57/BI6J mice = conditions: single 7.5 mg/kg dose; cited from earlier work
CYP2C8 = biological target: T1, CYP2C8 (Homo sapiens, UniProt P10632); test: CYP450 reaction phenotyping in Supersomes, CYP2C8; assay type: in vitro ADME
T1 construct: purchased
T1 sequence (P10632 whole entry): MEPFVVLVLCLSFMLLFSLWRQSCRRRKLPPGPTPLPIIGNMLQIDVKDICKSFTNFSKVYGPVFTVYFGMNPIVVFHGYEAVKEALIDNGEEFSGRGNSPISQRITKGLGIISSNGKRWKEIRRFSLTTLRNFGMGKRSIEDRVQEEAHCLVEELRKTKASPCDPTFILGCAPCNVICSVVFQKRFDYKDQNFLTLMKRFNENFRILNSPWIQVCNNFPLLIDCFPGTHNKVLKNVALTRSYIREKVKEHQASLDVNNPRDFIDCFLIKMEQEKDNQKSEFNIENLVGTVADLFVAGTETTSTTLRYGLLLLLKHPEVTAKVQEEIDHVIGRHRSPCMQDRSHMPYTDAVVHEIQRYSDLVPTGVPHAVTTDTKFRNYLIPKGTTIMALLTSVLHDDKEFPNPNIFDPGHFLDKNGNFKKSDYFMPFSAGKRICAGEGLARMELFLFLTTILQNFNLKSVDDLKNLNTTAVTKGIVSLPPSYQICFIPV
Protocol: (§2) In Vitro CYP450 Reaction Phenotyping Study in Supersomes™ Over-Expressing Human CYP Enzymes
(§3) The CYPP450 enzymes involved in the Phase I metabolism of Compound 1 Form A were investigated in vitro. Compound 1 Form A was metabolized by CYP1A2, CYP2D6 and CYP3A4 and with T1/2 values of 64, 14, and 176 min, respectively, and CLint of 0.261, 0.984 and 0.0786 μL/min/pmol CYP, respectively. No evidence of Compound 1 metabolism by CYP2B6, CYP2C8, CYP2C9 and CYP2C19 was observed.

[1] = Approximate solubility (visual) in solvents; assay type: physicochemical; conditions: thermodynamic from solid, read-out: Approx. solubility
Protocol: The polymorph study protocol involved the use of a selection of solvents in which the solubility of Compound 1 was initially evaluated. Four typologies of experiments were then set up: temperature cycling, evaporative, long-term slurries and vapor diffusion. The number of solvents, solvent volumes and amount of material to be used in each experiment was based on solubility values and the kind of experiment.
Approximate solubility (visual) of Compound 1 was assessed in a list of solvents selected based on class diversity including solvent/water mixtures (Table 5). Compound 1 (5.0±0.2 mg) was weighted in vials and known aliquots of solvent were progressively added at 20° C. until a clear solution was visually observed; magnetic stirring was applied. The final solutions were stirred at room temperature overnight to evaluate any re-crystallization phenomena.

double knock-in mice = test: Tau accumulation in double knock-in mice; assay type: in vivo
Description: as §1

[2] = biological target: aryl hydrocarbon receptor (AhR) (Rattus norvegicus, UniProt P41738); test: AhR receptor activation, rat; assay type: in vitro ADME; conditions: at 30 μM
Chain of aryl hydrocarbon receptor (AhR) (P41738 10-853): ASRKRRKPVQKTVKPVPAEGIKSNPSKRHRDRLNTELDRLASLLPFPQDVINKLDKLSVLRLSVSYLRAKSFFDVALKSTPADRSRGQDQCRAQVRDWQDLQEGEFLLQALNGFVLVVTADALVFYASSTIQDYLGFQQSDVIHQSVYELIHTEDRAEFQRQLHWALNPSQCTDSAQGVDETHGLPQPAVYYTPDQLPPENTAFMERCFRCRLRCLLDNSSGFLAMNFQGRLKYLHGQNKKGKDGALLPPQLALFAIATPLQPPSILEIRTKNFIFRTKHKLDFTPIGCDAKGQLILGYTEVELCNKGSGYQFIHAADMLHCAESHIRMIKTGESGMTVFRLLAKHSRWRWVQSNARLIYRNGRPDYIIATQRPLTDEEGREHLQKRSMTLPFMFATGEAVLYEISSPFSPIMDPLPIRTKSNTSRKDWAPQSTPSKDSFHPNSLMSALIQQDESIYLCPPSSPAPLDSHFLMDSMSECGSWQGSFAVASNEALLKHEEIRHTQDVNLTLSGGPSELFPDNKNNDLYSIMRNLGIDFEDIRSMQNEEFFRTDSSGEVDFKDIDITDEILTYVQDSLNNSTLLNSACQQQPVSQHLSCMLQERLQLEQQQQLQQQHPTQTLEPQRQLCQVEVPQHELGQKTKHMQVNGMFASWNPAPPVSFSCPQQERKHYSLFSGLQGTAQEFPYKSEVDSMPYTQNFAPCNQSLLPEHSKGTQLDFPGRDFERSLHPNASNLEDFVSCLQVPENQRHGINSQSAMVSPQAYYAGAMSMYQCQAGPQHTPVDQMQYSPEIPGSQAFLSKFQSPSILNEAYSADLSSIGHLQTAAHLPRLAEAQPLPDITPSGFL
Description: The objective of this study was to determine the human and rat pregnane X receptor (PXR) and human and rat aryl hydrocarbon receptor (AhR) receptor activation potential of Compound 1 Form A. The activation of PXR is a marker for induction of CYP3A4/5 and […] and the activation of AhR is a marker for induction of CYP1A.

CYP2C9 = biological target: T2, CYP2C9 (Homo sapiens, UniProt P11712); test: CYP450 reaction phenotyping in Supersomes, CYP2C9; assay type: in vitro ADME
T2 construct: purchased
T2 sequence (P11712 whole entry): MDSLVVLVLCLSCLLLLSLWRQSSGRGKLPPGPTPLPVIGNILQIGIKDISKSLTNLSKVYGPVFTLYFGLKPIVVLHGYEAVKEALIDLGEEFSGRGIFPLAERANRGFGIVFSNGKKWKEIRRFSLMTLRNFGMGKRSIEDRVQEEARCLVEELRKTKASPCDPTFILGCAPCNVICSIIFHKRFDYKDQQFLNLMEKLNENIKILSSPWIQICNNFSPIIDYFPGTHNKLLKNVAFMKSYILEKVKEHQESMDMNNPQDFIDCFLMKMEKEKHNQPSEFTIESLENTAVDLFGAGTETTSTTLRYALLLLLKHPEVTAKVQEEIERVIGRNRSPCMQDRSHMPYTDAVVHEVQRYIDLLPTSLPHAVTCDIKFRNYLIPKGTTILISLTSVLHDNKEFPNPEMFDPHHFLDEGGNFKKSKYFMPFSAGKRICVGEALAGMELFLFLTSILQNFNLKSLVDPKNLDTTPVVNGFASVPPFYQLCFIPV
Protocol: as §2, §3

O=C1N[C@H](c2cncc(C#Cc3ccccc3)c2)[C@@H](c2ccccc2Cl)O1 [Compound 1, (4R,5R)-5-(2-chlorophenyl)-4-(5-(phenylethynyl)pyridin-3-yl)oxazolidin-2-one]
Alzheimer-gene-dependent C1q localization to synapses and synaptic engulfment (C1q): prevented
production of the microglial mediator C1q (C1q): not altered
SV2A and PSD-95 staining in hippocampal and cortical sections, relative to vehicle (APP/PS1 mice; 3.75 mg/kg q12 oral, at least 28 days): significant increases
rescue of synaptic density after washout (APP/PS1 mice; one month washout period): persists after drug washout; also recorded: preserved
normalization of expression patterns (neurons and glia): to a much greater extent in neurons than glia
prevention of PAM-induced seizures, shown previously (C57/BI6J mice): prevents seizures
metabolism by CYP2C8 (CYP2C8): No evidence
solubility ([1]; aqueous with cosolvent or surfactant or cyclodextrin, 2-propanol/water 50:50, 20° C.): ~5 mg/mL (≈ 13.3 mM)
solubility ([1]; aqueous with cosolvent or surfactant or cyclodextrin, acetone/water 50:50, 20° C.): ~5 mg/mL (≈ 13.3 mM)
solubility ([1]; organic solvent or mixture, 2-butanol, 20° C.): 50 to 100 mg/mL (≈ 133 to 267 mM)
solubility ([1]; organic solvent or mixture, 2-methyltetrahydrofuran (MeTHF), 20° C.): > 100 mg/mL
solubility ([1]; organic solvent or mixture, 2-propanol/water 80:20, 20° C.): 50 to 100 mg/mL (≈ 133 to 267 mM)
solubility ([1]; organic solvent or mixture, 2-propanol/water 90:10, 20° C.): 30 to 50 mg/mL (≈ 80 to 133 mM)
solubility ([1]; organic solvent or mixture, acetone, 20° C.): > 100 mg/mL
solubility ([1]; organic solvent or mixture, acetone/water 90:10, 20° C.): > 100 mg/mL
solubility ([1]; organic solvent or mixture, acetonitrile, 20° C.): 50 to 100 mg/mL (≈ 133 to 267 mM)
solubility ([1]; organic solvent or mixture, benzonitrile, 20° C.): > 100 mg/mL
solubility ([1]; organic solvent or mixture, dichloromethane, 20° C.): > 100 mg/mL
solubility ([1]; organic solvent or mixture, ethanol, 20° C.): > 100 mg/mL
solubility ([1]; organic solvent or mixture, ethyl acetate, 20° C.): > 100 mg/mL
solubility ([1]; organic solvent or mixture, heptane, 20° C.): < 2 mg/mL
solubility ([1]; organic solvent or mixture, i-propyl acetate, 20° C.): 50 to 100 mg/mL (≈ 133 to 267 mM)
solubility ([1]; organic solvent or mixture, isopropyl alcohol (IPA), 20° C.): 25 to 30 mg/mL (≈ 66.7 to 80 mM)
solubility ([1]; organic solvent or mixture, methyl ethyl ketone (MEK), 20° C.): > 100 mg/mL
solubility ([1]; organic solvent or mixture, methyl isobutyl ketone (MIK), 20° C.): > 100 mg/mL
solubility ([1]; organic solvent or mixture, methyl tert-butyl ether (MTBE), 20° C.): 17 to 25 mg/mL (≈ 45.4 to 66.7 mM)
solubility ([1]; organic solvent or mixture, t-Butyl acetate, 20° C.): 25 to 30 mg/mL (≈ 66.7 to 80 mM)
solubility ([1]; organic solvent or mixture, tetrahydrofuran (THF), 20° C.): > 100 mg/mL
solubility ([1]; organic solvent or mixture, toluene, 20° C.): 25 to 30 mg/mL (≈ 66.7 to 80 mM)
solubility ([1]; water, 20° C.): < 2 mg/mL
Tau accumulation (double knock-in mice): reduced
AhR activation, % of the positive control [2]: 0.946%
mean maximum fold activation of AhR [2]: 1.42 fold
metabolism by CYP2C9 (CYP2C9): No evidence
